The values below are quoted from earlier work in US10980740B2, “Tranexamic acid spray for knee arthroplasty” (SHILPA MEDICARE LIMITED, priority 2017, dated 2021).

One data set concerns the target plasminogen (Homo sapiens, UniProt P00747).
The test system of data set [1] is Total knee arthroplasty patients.
The test system of data set [2] is patients undergoing elective total knee arthroplasty.

Where two headings read alike, the source gives them in different places.

plasminogen, sequence (P00747 20-810 limits assumed, species assumed): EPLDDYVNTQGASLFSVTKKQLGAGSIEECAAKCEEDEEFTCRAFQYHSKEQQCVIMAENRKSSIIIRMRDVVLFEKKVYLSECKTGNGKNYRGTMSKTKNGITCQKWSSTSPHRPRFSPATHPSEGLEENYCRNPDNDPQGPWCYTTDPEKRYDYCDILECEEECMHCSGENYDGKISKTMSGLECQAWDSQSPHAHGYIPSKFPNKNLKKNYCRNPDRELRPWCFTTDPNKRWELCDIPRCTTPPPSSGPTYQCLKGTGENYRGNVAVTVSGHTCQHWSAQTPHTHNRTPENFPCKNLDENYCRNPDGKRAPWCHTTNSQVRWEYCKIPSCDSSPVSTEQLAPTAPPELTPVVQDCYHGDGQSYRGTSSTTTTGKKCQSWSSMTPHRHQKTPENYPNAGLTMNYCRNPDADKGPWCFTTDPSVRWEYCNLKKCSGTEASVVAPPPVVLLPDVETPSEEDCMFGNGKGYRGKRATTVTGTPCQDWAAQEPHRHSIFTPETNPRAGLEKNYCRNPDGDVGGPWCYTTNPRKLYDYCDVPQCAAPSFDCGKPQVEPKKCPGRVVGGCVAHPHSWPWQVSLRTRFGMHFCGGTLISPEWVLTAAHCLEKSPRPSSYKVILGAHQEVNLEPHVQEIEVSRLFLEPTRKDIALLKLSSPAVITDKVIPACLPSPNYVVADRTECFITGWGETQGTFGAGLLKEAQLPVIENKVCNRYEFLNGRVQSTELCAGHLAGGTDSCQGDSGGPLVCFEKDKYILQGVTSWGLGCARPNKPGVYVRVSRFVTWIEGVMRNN

Take `NC[C@H]1CC[C@H](C(=O)O)CC1` [Tranexamic acid]: the “potency in vitro relative to aminocaproic acid” value on plasminogen is listed as “about 10 times”. In addition, the systemic side effects result in data set [1] (topical tranexamic acid) is on record as “reduces the systemic side effects”. Besides, the “reduction of peri- and post-operative blood loss, topical compared with intravenous” value in data set [1] (total knee arthroplasty, topical 2 gm in intra-articular drain, clamped one hour) is “equally efficacious”. The “reducing calculated blood loss and transfusion rates” value is listed as “effective” in data set [2] (intravenous) and “effective” in data set [2] (topical, 3 gm diluted in 45 mL normal saline, applied after cementation).
